Literature values, collected in patent US11019825B2, “Product” (priority 2015, dated 2021).

Tests used:
canola seedlings = conditions: low concentrations

Harzianic acid
antibiotic activity in vitro (Pythium irregulare): antibiotic activity
antibiotic activity in vitro (Sclerotinia sclerotiorum): antibiotic activity
antibiotic activity in vitro (Rhizoctonia solani): antibiotic activity
plant growth promotion effect (canola seedlings): plant growth promotion effect
